Laboratory results reported in patent US5681966A, “Compounds and methods for the treatment of cardiovascular, inflammatory and immune disorders” (Cytomed, Inc., priority 1995, dated 1997).
Values belong to the compound of their own block, whether it stands above or below them.

Key:
5-lipoxygenase [1] = target: T1, 5-lipoxygenase (Rattus norvegicus, UniProt P12527); test: Inhibition of soluble 5-lipoxygenase in RBL-1 cell extract (cytosol 5-lipoxygenase of rat basophile leukemia cells; RBL); type: biochemical; details: for IC50: RBL-1 cell extract; for activity in 5-lipoxygenase assay: qualitative
T1 construct: The supernatant solution (cytosol fraction) containing 5-lipoxygenase was stored; endogenous in cells; host or cells: RBL-1 rat basophilic leukemia cells, 105,000 x g supernatant (cytosol)
T1 sequence (P12527 1-673): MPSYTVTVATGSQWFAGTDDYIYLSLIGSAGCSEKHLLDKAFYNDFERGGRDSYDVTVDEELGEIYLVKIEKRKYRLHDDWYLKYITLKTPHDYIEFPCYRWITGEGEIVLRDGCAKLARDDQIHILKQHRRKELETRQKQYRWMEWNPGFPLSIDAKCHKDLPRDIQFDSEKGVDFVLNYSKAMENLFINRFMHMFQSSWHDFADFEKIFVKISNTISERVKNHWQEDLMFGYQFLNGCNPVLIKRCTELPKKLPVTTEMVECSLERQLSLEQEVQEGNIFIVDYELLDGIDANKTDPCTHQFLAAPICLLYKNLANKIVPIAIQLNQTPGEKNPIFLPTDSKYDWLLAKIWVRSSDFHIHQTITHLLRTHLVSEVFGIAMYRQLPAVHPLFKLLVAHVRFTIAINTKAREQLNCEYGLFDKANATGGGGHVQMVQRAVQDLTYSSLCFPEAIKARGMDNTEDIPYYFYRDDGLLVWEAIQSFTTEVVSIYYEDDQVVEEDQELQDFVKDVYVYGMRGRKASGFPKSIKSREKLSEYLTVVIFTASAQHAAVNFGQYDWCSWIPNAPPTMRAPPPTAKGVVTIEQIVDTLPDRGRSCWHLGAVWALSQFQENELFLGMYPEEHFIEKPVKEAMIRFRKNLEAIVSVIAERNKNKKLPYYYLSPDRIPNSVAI
Description: Effect of Compounds on Cytosol 5-Lipoxygenase of Rat Basophile Leukemia Cells
Washed rat RBL cells (4×108) were suspended in 20 ml of […] potassium phosphate buffer at pH 7.4 containing 10% ethylene glycol/1 mM EDTA (Buffer A). The cell suspension was sonicated at 20 KHz for 30 seconds, and the sonicate was centrifuged at 10,000 × g for 10 minutes, followed by further centrifugation at 105,000 × g for 1 hr. The supernatant solution (cytosol fraction) containing 5-lipoxygenase was stored at -70° C. Protein concentration was determined according to the procedure of Bradford (Bradford Dye Reagent) with bovine serum albumin as a standard.
For routine assay of 5-lipoxygenase the mixture contained 50 mM potassium phosphate buffer at pH 7.4, 2 mM CaCl2, 2 mM ATP, […] arachidonic acid (0.1 Ci) and enzyme ([…] of protein) in a final volume of […]. The reaction was carried out at 24° C. for 3 minutes. The mixture was extracted with 0.2 ml of an ice-cold mixture of ethyl ether:methanol: 0.2M citric acid (30:4:1). The extract was subjected to thin-layer chromatography at -10° C. in a solvent system of petroleum ether:ethyl ether:acetic acid (15:85:0.1). The silica gel zones corresponding to authentic arachidonic acid and its metabolites were scraped into scintillation vials for counting. The enzyme activity was expressed in terms of the amount of arachidonic acid oxygenated for 3 minutes.
Table 3 provides data for the inhibition of soluble 5-lipoxygenase in RBL-1 cell extract by racemic compound 202, as well as its enantiomers, compounds […], 234, and 236.

PAF receptor = details: cited from earlier work; for PAF receptor antagonism / inhibition of PAF binding: qualitative
[2] = system: 5-lipoxygenase (ex vivo LTB4); test: Ex vivo whole blood 5-lipoxygenase evaluation (ex vivo LTB4); type: in vivo; details: rat, 10 mg/kg po, 180'
Description: Ex-vivo Mouse and Rat Whole Blood 5-lipoxygenase Evaluation
CD-1 female mice, weighing 18-25 grams, and CD female rates, weighing 150-230 grams, were obtained from Charles River Labs. Compounds were dissolved in 0.5% DMSO in 0.9% NaCl for administration in mice (0.5 mg/ml) and in an alcohol Vehicle (2% benzyl alcohol, 1% ethanol, 40% PEG 300 10% propylene glycol, 47% of 5% dextrose plus 3.5% pluronic F-68 in DiH2 O) for use in rates (5 mg/ml). […] Heparinized whole blood (0.3 ml) was added into 1.5 ml Eppendorf centrifuge tub containing […] of 2 mM calcium ionophore A23187 (the final concentration of A23187 was […]). The sample was incubated for 30 minutes in a water bath of 37° C., and then centrifuged for 2 minutes. The plasma was diluted (×120) and assayed for LTB4 using EIA.
Table 3 provides data for the ex-vivo mouse and rat whole blood 5-lipoxygenase values on administration of racemic compound 202, as well as its enantiomers, compounds 216, 217, 234, and 236.

[3] = cited from earlier work
platelets = details: active concentration; cited from earlier work
5-lipoxygenase [4] = details: qualitative; cited from earlier work
[5] = system: PAF-induced rat cutaneous vascular permeability; details: 30 mg/kg body weight; orally active; cited from earlier work

IC50 (5-lipoxygenase [1]): 3510 nM
Compound: C[C@@H](C#C[C@@H]1CC[C@@H](c2ccc(F)cc2)O1)N(O)C(N)=O

IC50 (5-lipoxygenase [1]): 3800 nM
Compound: C[C@H](C#C[C@@H]1CC[C@@H](c2ccc(F)cc2)O1)N(O)C(N)=O

activity in 5-lipoxygenase assay (5-lipoxygenase [1]): showed activity in this assay
Compound: NC(=O)N(O)CCCO[C@@H]1CC[C@H](c2ccc(F)cc2)O1 (relative stereo) [Compound 15, 2-(4-fluorophenyl)-5-(3-hydroxyureidylpropoxy) tetrahydrofuran]

activity in 5-lipoxygenase assay (5-lipoxygenase [1]): showed activity in this assay
Compound: CN(O)C(=O)NCCCO[C@@H]1CC[C@@H](c2ccc(F)cc2)O1 (relative stereo) [Compound 9, 2-(4-fluorophenyl)-5-[3-(N'-methyl-N'-hydroxyureidyl)propoxy] tetrahydrofuran]

activity in 5-lipoxygenase assay (5-lipoxygenase [1]): showed activity in this assay
Compound: CN(O)C(=O)NCCCO[C@@H]1CC[C@H](c2ccc(F)cc2)O1 (relative stereo) [Compound 11, 2-(4-fluorophenyl)-5-[3-(N'-methyl-N'-hydroxyureidyl)propoxy] tetrahydrofuran]

Compound: CCCOc1c(OC)cc([C@@H]2CC[C@@H](c3cc(OC)c(OC)c(OC)c3)O2)cc1S(C)(=O)=O (relative stereo) [L-659,989, trans-2-(3-methoxy-4-propoxyphenyl-5-methylsulfonyl)-5-(3,4,5-trimethoxyphenyl)tetrahydrofuran]
PAF receptor antagonism / inhibition of PAF binding (PAF receptor): orally active, potent, competitive PAF receptor antagonist
equilibrium inhibition constant relative to trans-L-652,731 (PAF receptor; vs trans-L-652,731): 10 times

IC50 (5-lipoxygenase [1]): 3100 nM
Compound: C[C@H](C#C[C@H]1CC[C@H](c2ccc(F)cc2)O1)N(O)C(N)=O

IC50 (5-lipoxygenase [1]): 618 nM
Compound: NC(=O)N(O)CCCCC1CCC(c2ccc(F)cc2)O1 (stereo not shown)
ex vivo LTB4 % (inhibition), last sub-column [2]: 83%

IC50 (5-lipoxygenase [1]): 2800 nM
inhibition at 1.6 µM (5-lipoxygenase [1]; dose 1.6 uM, read-out: RBL % inh.): 20%
Compound: CC(C#C[C@@H]1CC[C@@H](c2ccc(F)cc2)O1)N(O)C(N)=O (relative stereo)

Compound: 1-O-alkyl-2-acetyl-sn-glycerol-3-phosphorylcholine [PAF]
plasma half life [3]: 2 to 4 min
potency (active at) (platelets): 10^-12 to 10^-9 M

Compound: C=CCC1=C[C@@]2(OC)C(=CC1=O)O[C@H](c1ccc(OC)c(OC)c1)[C@H]2C [kadsurenone]
PAF receptor antagonism / inhibition of PAF binding (PAF receptor): potent, specific and competitive inhibitor of PAF activity at the receptor level

IC50 (5-lipoxygenase [1]): 1100 nM
Compound: NC(=O)N(O)CCCC[C@@H]1CC[C@@H](c2ccc(F)cc2)O1

activity in 5-lipoxygenase assay (5-lipoxygenase [1]): showed activity in this assay
Compound: NC(=O)N(O)CCCO[C@@H]1CC[C@@H](c2ccc(F)cc2)O1 (relative stereo) [Compound 14, 2-(4-fluorophenyl)-5-(3-hydroxyureidylpropoxy) tetrahydrofuran]

Compound: CCCCCCCCCCCCCCCCCCNC(=O)OCC(COP(=O)([O-])OCC[n+]1ccsc1)OC (racemic) [CV-3988, rac-3-(N-n-octadecyl-carbamoyloxy-ω-methoxypropyl-2-thiazolioethyl phosphate]
PAF receptor antagonism / inhibition of PAF binding (PAF receptor): PAF receptor antagonist properties

IC50 (5-lipoxygenase [1]): 2000 nM
Compound: C[C@@H](C#C[C@H]1CC[C@H](c2ccc(F)cc2)O1)N(O)C(N)=O

Compound: COc1cc([C@H]2CC[C@H](c3cc(OC)c(OC)c(OC)c3)S2)cc(OC)c1OC (relative stereo) [L-653,150, trans-2,5-bis-(3,4,5-trimethoxyphenyl)tetrahydrothiophene]
effect on 5-lipoxygenase (5-lipoxygenase [4]): moderate inhibitor of 5-lipoxygenase
PAF receptor antagonism / inhibition of PAF binding (PAF receptor): potent PAF antagonist

Compound: COc1cc([C@H]2CC[C@H](c3cc(OC)c(OC)c(OC)c3)O2)cc(OC)c1OC (relative stereo) [L-652,731, trans-2,5-bis-(3,4,5-trimethoxyphenyl) tetrahydrofuran]
effect on 5-lipoxygenase (5-lipoxygenase [4]): no effect on the enzyme 5-lipoxygenase
PAF receptor antagonism / inhibition of PAF binding (PAF receptor): inhibits the binding of tritiated PAF to PAF receptor sites
relative potency, trans versus cis (PAF receptor; trans-L-652,731 vs cis-L-652,731): approximately 1000 times
inhibition of PAF-induced cutaneous vascular permeability [5]: inhibit PAF-induced rat cutaneous vascular permeability
